Laboratory results from BindingDB's records for PubMed 35766919 (Zhejiang University, 2022).

Biological target: Maltase-glucoamylase (Homo sapiens, UniProt O43451)
Assay: Inhibition of alpha-glucosidase (unknown origin) using p-nitrophenyl-alpha-D-glucopyranoside as substrate incubated for 10 mins followed by substrate addition and measured after 15 mins by microplate reader analysis

Maltase-glucoamylase, sequence (O43451 whole entry): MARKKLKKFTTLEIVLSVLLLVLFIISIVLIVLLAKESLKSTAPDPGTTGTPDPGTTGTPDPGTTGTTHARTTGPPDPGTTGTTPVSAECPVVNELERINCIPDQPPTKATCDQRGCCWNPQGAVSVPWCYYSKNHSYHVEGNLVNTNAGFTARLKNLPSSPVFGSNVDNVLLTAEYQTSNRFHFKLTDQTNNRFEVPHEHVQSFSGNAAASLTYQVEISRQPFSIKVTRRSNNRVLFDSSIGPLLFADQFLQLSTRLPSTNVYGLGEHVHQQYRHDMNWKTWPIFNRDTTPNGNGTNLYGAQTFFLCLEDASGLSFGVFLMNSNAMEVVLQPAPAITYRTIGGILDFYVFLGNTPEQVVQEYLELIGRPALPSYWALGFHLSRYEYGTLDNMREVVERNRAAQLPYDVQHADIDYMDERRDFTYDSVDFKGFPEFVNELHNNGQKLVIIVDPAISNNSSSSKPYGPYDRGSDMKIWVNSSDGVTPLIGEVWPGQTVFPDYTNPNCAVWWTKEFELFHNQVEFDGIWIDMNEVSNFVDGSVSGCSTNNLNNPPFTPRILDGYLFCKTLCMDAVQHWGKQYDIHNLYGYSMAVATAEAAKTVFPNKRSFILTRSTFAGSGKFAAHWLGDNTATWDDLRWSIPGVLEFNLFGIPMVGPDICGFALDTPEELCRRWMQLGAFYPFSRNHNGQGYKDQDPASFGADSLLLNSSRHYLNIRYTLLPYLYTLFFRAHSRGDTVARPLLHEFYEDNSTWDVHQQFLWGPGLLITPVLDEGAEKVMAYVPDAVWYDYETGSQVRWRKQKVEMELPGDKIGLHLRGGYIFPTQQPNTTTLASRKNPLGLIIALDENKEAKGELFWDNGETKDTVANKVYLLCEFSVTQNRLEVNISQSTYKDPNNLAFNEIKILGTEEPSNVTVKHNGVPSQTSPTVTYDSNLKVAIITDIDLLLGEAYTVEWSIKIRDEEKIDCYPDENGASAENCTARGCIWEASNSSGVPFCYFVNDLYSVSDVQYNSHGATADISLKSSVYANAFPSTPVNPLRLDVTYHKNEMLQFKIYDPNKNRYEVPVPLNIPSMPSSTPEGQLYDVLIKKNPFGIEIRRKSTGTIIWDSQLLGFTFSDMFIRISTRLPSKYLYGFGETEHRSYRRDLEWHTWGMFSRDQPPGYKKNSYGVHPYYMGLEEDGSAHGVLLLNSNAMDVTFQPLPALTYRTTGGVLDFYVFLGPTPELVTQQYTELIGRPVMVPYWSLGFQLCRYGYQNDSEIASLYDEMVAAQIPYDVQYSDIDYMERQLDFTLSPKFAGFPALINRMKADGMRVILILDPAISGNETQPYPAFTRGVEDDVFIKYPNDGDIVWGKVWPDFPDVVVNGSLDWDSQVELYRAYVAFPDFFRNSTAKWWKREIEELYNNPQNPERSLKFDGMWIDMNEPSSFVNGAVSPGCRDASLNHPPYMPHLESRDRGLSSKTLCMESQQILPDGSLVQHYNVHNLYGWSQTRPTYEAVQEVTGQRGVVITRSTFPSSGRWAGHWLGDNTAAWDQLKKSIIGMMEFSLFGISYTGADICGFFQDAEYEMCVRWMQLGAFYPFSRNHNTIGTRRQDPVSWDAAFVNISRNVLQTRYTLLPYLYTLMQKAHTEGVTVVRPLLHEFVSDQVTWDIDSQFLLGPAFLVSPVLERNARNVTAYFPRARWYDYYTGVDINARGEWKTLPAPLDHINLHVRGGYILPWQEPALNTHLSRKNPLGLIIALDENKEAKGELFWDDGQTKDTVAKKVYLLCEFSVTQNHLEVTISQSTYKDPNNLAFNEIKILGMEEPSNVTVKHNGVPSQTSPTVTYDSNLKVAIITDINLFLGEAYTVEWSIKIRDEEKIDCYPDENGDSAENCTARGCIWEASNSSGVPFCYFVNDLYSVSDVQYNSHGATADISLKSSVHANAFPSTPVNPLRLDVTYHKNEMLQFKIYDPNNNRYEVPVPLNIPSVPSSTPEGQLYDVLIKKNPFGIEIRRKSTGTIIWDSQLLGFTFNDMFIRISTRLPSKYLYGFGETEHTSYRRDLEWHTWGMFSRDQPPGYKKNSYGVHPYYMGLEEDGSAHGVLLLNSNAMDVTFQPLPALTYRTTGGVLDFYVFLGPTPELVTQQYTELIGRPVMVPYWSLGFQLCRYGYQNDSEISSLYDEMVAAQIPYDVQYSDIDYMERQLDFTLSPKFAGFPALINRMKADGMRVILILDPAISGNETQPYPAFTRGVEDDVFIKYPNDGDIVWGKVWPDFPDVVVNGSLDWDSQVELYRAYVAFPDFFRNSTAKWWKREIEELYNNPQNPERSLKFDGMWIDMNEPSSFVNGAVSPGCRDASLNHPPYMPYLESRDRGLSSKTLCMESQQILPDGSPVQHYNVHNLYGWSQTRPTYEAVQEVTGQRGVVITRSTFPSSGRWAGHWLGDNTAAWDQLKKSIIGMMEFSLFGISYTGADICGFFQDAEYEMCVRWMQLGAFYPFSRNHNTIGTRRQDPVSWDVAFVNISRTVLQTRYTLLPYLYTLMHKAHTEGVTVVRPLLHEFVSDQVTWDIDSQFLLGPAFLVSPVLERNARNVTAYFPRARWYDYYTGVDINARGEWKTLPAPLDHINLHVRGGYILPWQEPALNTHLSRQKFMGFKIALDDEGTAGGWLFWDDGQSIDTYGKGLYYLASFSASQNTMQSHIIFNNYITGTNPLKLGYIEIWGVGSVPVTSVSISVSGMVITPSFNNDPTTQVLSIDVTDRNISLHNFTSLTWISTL

Row | SMILES | IC50 [µM]
1 | Cc1cc(O)c2c(c1)-c1c(-c3ccc(O)cc3)c(=O)oc3c1c-2c(O)c1cccc(O)c13 | 0.89
2 | Cc1cc(O)c2c(c1)-c1c(-c3c[nH]c4ccccc34)c(=O)oc3c1c-2c(O)c1cccc(O)c13 | 1.58
